Laboratory results taken from patent US9981969B2, “Imidazole derivatives and methods of use thereof for improving the pharmacokinetics of a drug” (MERCK SHARP & DOHME CORP., priority 2013, dated 2018).
pIC50: −log10 of the molar value.

Assays:
human CYP11B1 = target: T1, human CYP11B1 (Homo sapiens, UniProt P15538); test: IC50 vs CYP11B1 by measurement of cortisol synthesis in V79 cells; type: cell-based; conditions: V79 cells expressing human CYP11B1, 1500 nM RSS, cortisol HTRF
T1 construct: expressed in transfected cells
T1 sequence (P15538 25-503): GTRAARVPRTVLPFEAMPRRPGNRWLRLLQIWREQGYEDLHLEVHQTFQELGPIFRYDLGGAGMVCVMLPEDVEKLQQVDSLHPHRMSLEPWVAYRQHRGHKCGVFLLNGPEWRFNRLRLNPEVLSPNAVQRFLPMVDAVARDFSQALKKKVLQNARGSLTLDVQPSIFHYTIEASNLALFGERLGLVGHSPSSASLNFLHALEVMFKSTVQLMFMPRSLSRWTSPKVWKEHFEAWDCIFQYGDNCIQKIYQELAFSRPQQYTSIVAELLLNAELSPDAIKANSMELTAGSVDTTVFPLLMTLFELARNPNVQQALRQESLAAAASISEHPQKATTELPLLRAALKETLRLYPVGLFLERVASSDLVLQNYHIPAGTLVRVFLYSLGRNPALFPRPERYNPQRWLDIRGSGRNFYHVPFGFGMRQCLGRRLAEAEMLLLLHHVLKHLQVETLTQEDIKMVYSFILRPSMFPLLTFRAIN
Experimental: (§1) This assay was performed in a standard 384-well plate design using cultured V79 cells stably expressing human CYP11B1 or human CYP11B2. Test compounds at 10 concentrations (for example, 10000, 3333.3, 1111.1, 370.4, 123.5, 41.2, 13.7, 4.6, 1.5 and 0.5 nM) were added in 384-well plate after the cell-seeding procedure. The incubation substrate contains 1500 nM RSS for CYP11B1 assay/750 nM DOC for CYP11B2 assay. The Cortisol/Aldosterone production of cell culture supernatant was determined by Cortisol/Aldosterone HTRF kit after for about 15 hours incubation at RT (protect from light). IC50 (nM) values were calculated from the percent inhibition observed for each test compound at 10 concentrations.
(§2) The assay plate was read using Envision (Perkin Elmer, Waltham, Mass.) at 665 nm and 590 nm (using Filter Barcode of 217#, 205#; Mirror Barcode of 446#).
(§3) Data are analyzed using Assay Data Analyzer. All ratio data (665 nm/590 nm) are back calculated according to the standard curve, resulting in Cortisol/Aldosterone concentrations. IC50 (nM) values are reported as the Inflection Point (IP) of a four parameter fit of the titration data.
(§4) The following equation was used to calculate the % inhibition: % Activity=100×{1−(Sample_back calculated Cortisol/Aldosterone concentration−LC_back calculated Cortisol/Aldosterone concentration)/(HC_back calculated Cortisol/Aldosterone concentration−LC_back calculated Cortisol/Aldosterone concentration)} Curve Fitting: Four Parameter Logistic: […]

CYP2C19 = target: T2, CYP2C19 (Homo sapiens, UniProt P33261); test: Cocktail assay for CYPs in human liver microsomes, mephenytoin 4′-hydroxylation (2C19); type: biochemical; conditions: 30 μM mephenytoin, 10 min at 37° C.
T2 construct: 0.1 mg/mL protein human liver microsomes (BD Gentest); tissue BD Gentest; host or cells: human liver microsomes
Experimental: (§5) This assay was performed in a standard 96-well plate design. IC50 values were calculated from the percent inhibition observed for each test compound at 6 concentrations (for example, 0.0032, 0.016, 0.08, 0.4, 2 and 10 μM). The incubation substrate mix contains 10 μM phenacetin (1A2), 5 μM diclofenac (2C9), 30 μM mephenytoin (2C19), 5 μM dextromethorphan (2D6) and 2 μM midazolam (3A4), 0.1 mg/mL protein human liver microsomes (BD Gentest), 1 mM NAPDH, 3.3 mM MgCl2 and 100 mM potassium phosphate buffer (pH 7.4). The production of the metabolite of each probe substrate was determined after incubation for 10 min at 37° C. Quantitation of the metabolite peak area ratio against an internal standard (tolbutamide) was determined by LC/MS/MS analysis following acetonitrile treatment of the incubations.
(§6) Samples were analyzed in the MRM mode with a SCIEX API-4000 mass spectrometer (Applied Biosystems, Foster City, Calif.), with a Shimadzu LC-20 AD pump (Shimadzu corporation, Kyoto, JP) and a CTC PAL autosampler (Agilent Technologies, Switzerland). A Phenomenex, Luna, 5 μm, 100A, 2.00×30 mm HPLC column was used for the separation. The mobile phases were: (A) 0.1% formic acid in water and (B) 0.1% formic acid in acetonitrile. The binary gradient was as follows. AutoSampler: CTC PAL
(§7) The peak area ratio of the analyte to the internal standard was used to quantify the metabolite. The values of peak area ratios in the presence of test compound were compared to those of maximum or minimum controls and were expressed as % inhibition by interpolating between the maximum and minimum peak area ratios. Incubations with no inhibitor were defined as the maxima. The following equation was used to calculate the % inhibition: [1−[(X−Low control)/(High control−Low control)]]*100 For the IC50 calculation, SigmaPlot was used to plot the mean % inhibition versus the test compound concentrations and for non-linear regression analysis of the data. Depending on the range of data points defining the inhibition curve, the data may have been fit to the 4-parameter logistic equation.

CYP2D6 = target: T3, CYP2D6 (Homo sapiens, UniProt P10635); test: Cocktail assay for CYPs in human liver microsomes, dextromethorphan O-demethylation (2D6); type: biochemical; conditions: 5 μM dextromethorphan, 10 min at 37° C.
T3 construct: 0.1 mg/mL protein human liver microsomes (BD Gentest); tissue BD Gentest; host or cells: human liver microsomes
Experimental: as §5, §6, §7

CYP1A2 = target: T4, CYP1A2 (Homo sapiens, UniProt P05177); test: Cocktail assay for CYPs in human liver microsomes, phenacetin O-deethylation (1A2); type: biochemical; conditions: 10 μM phenacetin, 10 min at 37° C.
T4 construct: 0.1 mg/mL protein human liver microsomes (BD Gentest); tissue BD Gentest; host or cells: human liver microsomes
T4 sequence (P05177 1-516): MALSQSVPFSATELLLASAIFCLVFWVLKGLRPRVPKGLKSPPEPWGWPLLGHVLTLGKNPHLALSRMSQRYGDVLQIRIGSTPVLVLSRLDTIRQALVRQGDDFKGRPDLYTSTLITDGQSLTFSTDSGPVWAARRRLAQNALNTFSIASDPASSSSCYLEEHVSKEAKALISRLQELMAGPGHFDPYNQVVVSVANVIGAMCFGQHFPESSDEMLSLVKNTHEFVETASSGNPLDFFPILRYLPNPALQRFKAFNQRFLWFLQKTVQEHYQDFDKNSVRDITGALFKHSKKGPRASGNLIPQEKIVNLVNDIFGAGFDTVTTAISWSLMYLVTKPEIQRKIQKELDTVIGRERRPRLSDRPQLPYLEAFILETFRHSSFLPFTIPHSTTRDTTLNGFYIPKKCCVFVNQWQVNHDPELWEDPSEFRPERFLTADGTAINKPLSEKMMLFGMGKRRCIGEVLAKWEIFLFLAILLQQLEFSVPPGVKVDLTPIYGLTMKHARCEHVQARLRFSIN
Experimental: as §5, §6, §7

human CYP11B2 = target: T5, human CYP11B2 (Homo sapiens, UniProt P19099); test: IC50 vs CYP11B2 by measurement of aldosterone synthesis in V79 cells; type: cell-based; conditions: V79 cells expressing human CYP11B2, 750 nM DOC, aldosterone HTRF
T5 construct: expressed in transfected cells
T5 sequence (P19099 25-503): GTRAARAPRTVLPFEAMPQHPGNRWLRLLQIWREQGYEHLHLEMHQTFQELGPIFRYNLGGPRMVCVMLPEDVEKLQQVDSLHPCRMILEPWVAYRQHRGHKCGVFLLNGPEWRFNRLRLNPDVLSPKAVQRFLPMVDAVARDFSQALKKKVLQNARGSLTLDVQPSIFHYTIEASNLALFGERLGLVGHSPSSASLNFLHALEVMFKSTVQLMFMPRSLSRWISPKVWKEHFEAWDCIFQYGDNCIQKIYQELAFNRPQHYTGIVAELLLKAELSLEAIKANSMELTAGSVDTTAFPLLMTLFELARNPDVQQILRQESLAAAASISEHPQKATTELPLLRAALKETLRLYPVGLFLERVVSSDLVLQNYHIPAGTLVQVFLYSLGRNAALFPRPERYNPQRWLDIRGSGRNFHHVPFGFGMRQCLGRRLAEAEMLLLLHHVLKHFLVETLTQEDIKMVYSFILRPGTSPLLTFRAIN
Experimental: as §1, §2, §3, §4

CYP3A4 = target: T6, CYP3A4 (Homo sapiens, UniProt P08684); test: Cocktail assay for CYPs in human liver microsomes, midazolam 1′-hydroxylation (3A4); type: biochemical; conditions: 2 μM midazolam, 10 min at 37° C.
T6 construct: 0.1 mg/mL protein human liver microsomes (BD Gentest); tissue BD Gentest; host or cells: human liver microsomes
Experimental: as §5, §6, §7

CYP2C9 = target: T7, CYP2C9 (Homo sapiens, UniProt P11712); test: Cocktail assay for CYPs in human liver microsomes, diclofenac 4′-hydroxylation (2C9); type: biochemical; conditions: 5 μM diclofenac, 10 min at 37° C.
T7 construct: 0.1 mg/mL protein human liver microsomes (BD Gentest); tissue BD Gentest; host or cells: human liver microsomes
Experimental: as §5, §6, §7

T3 sequence (P10635 whole entry): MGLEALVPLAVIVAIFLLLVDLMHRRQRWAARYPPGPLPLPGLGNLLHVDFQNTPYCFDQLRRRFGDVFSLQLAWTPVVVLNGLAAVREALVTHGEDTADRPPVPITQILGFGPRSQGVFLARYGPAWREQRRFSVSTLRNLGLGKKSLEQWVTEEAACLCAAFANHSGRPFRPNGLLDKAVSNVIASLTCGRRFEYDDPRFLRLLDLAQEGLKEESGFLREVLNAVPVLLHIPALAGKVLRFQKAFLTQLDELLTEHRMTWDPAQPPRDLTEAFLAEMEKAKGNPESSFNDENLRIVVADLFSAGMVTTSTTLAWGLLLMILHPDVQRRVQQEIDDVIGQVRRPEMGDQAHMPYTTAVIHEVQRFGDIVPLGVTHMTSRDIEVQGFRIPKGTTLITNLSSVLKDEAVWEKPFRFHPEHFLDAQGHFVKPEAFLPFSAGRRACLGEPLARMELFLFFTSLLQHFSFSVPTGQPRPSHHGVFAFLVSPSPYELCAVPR
T6 sequence (P08684 whole entry): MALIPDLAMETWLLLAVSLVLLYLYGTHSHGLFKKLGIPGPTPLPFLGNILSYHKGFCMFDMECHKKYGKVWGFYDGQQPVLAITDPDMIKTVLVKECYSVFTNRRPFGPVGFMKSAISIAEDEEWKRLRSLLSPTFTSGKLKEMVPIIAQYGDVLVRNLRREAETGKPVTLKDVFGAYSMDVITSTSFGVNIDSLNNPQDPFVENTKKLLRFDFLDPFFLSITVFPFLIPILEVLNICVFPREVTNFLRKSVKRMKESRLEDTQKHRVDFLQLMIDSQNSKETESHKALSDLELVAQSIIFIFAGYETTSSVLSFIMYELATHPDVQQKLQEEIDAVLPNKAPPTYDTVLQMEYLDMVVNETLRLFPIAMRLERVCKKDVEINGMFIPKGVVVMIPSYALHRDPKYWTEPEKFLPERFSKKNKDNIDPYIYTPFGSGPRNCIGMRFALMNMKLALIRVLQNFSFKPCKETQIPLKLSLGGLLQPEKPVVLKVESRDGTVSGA
T7 sequence (P11712 whole entry): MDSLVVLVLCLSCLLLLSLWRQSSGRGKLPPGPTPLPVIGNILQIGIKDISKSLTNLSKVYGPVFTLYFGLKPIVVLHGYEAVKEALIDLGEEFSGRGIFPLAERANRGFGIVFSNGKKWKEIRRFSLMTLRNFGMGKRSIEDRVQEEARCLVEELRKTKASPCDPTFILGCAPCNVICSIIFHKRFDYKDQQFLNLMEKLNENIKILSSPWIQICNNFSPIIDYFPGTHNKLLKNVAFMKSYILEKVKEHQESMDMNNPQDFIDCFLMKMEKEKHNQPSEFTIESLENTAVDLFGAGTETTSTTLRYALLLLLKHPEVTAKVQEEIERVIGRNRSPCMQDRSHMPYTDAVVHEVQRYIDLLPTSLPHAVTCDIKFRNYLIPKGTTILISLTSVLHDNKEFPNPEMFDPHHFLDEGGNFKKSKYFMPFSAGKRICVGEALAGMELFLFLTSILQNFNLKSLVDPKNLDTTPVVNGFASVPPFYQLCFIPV
T2 sequence (P33261 whole entry): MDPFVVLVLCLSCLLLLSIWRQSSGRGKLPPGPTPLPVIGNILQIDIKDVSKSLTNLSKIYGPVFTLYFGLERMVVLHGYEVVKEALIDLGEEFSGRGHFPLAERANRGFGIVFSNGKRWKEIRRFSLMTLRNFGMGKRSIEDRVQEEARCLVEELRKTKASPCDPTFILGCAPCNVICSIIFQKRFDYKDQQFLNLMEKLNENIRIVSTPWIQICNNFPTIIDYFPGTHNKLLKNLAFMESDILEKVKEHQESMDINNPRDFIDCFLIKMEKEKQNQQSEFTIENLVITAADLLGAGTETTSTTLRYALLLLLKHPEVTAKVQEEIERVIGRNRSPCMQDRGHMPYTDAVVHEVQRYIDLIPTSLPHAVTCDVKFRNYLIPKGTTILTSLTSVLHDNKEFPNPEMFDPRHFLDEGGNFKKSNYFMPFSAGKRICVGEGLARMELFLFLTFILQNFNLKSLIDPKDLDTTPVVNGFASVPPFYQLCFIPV

Compound	pIC50 (human CYP11B1)	pIC50 (CYP2C19)	pIC50 (CYP2D6)	pIC50 (CYP1A2)	pIC50 (human CYP11B2)	pIC50 (CYP3A4)	pIC50 (CYP2C9)
C[C@@H](c1ccccc1-c1ccc(F)cc1)n1cncc1C(=O)N1CCCC(N2CCC(C)(O)CC2)CC1 (single isomer, unassigned) [Compound 3a]	4.43	< 5.00	5.39	< 5.00	< 4.30	8.14	< 5.00
C[C@@H](c1ccccc1-c1ccc(F)cc1)n1cncc1C(=O)N1CCCC(N2CCC(C)(O)CC2)CC1 (single isomer, unassigned) [Compound 3b]	4.90	< 5.00	5.62	< 5.00	4.37	8.18	< 5.00
C[C@@H](c1ccccc1-c1ccc(F)cc1)n1cncc1C(=O)N1CCC(N2CCC(O)CC2)CC1 [Compound 1]	4.48	< 5.00	5.18	< 5.00	< 4.30	8.17	< 5.00
C[C@@H](c1ccccc1-c1ccc(F)cc1)n1cncc1C(=O)N1CC[C@@H](N2CCC(O)CC2)[C@@H](F)C1 [Compound 2]	4.62	< 5.00	< 5.00	< 5.00	4.51	8.30	< 5.00
C[C@@H](c1ccccc1-c1ccc(F)cc1)n1cncc1C(=O)N1CCC(N2CCC[C@H](O)C2)CC1 [Compound 8]	4.68	< 5.00	< 5.00	< 5.00	< 4.30	8.25	< 5.00

Next, values leading:

pIC50 (human CYP11B1)	pIC50 (CYP2C19)	pIC50 (CYP2D6)	pIC50 (CYP1A2)	pIC50 (human CYP11B2)	pIC50 (CYP3A4)	pIC50 (CYP2C9)	Compound
4.57	< 5.00	5.09	< 5.00	< 4.30	8.28	< 5.00	C[C@@H](c1ccccc1-c1ccc(F)cc1)n1cncc1C(=O)N1CCC2NC(=O)CO[C@@H]2C1 (mixture of isomers) [Compound 50]
4.86	< 5.00	5.31	< 5.00	< 4.30	8.24	< 5.00	C[C@@H](c1ccccc1-c1ccc(F)cc1)n1cncc1C(=O)N1CC[C@H]2NCCO[C@@H]2C1 [Compound 4]
4.37	5.12	≤ 5.00	< 5.00	< 4.30	8.21	< 5.00	C[C@@H](c1ccccc1-c1ccc(F)cc1)n1cncc1C(=O)N1CCn2c(nnc2C2CC2)C1 [Compound 5]
4.53	< 5.00	< 5.00	< 5.00	< 4.30	8.05	< 5.00	C[C@@H](c1ccccc1-c1ccc(F)cc1)n1cncc1C(=O)N1CCN2C[C@H](O)C[C@H]2C1 [Compound 6, (1-((S)-1-(4′-fluoro-[1,1′-biphenyl]-2-yl)ethyl)-1H-imidazol-5-yl)((7R,8aS)-7-hydroxyhexahydro-pyrrolo[1,2-a]pyrazin-2(1H)-yl)methanone]
4.34	< 5.00	< 5.00	< 5.00	< 4.30	8.24	< 5.00	CCc1nnc2n1CCN(C(=O)c1cncn1[C@@H](C)c1ccccc1-c1ccc(F)cc1)C2 [Compound 7, (S)-(3-ethyl-5,6-dihydro-[1,2,4]triazolo[4,3-a]pyrazin-7(8H)-yl)(1-(1-(4′-fluoro-[1,1′-biphenyl]-2-yl)ethyl)-1H-imidazol-5-yl)methanone]
4.60	< 5.00	5.18	< 5.00	< 4.30	8.18	< 5.00	C[C@@H](c1ccccc1-c1ccc(F)cc1)n1cncc1C(=O)N1CCC(N2CCCC(C)(O)C2)CC1 (some centres unmarked) [Compound 9]
